Measurements reported in PMC6747051, “Screening of Antiviral Components of Ma Huang Tang and Investigation on the Ephedra Alkaloids Efficacy on Influenza Virus Type A” (Frontiers in Pharmacology, 2019).
In brackets after ≈: the same amount, converted by molar mass. Several values for one entry are separate records, joined by “and”; a condition that tells them apart may be missing. Identical values can stand only once. Entries after “also recorded” stand apart in the source; their conditions may differ. Like-named read-outs stand apart in the source and are kept apart here.

Columns and labels:
influenza A virus [1] = assay: Viral load assay using real-time RT-PCR (M1 gene) and CPE in infected MDCK cells; format: cell-based, influenza virus A/PR8/34 (H1N1); conditions: for virus load vs oseltamivir group: LMEP 31.25 μg/ml, LEP […], DPEP […]
[2] = tested on: TLRs signaling pathway mRNA; format: cell-based, canine
influenza A virus [3] = assay: Antiviral activity assay in vitro with four ways of drug delivery (MTT, MDCK cells); format: cell-based, influenza virus A/PR8/34 (H1N1); conditions: for EC50: Influenza A virus, MDCK
[4] = tested on: IL-6, IFN-β and TNF-α levels; format: cell-based, canine
influenza A virus [5] = assay: microbe, parasite or virus in culture; conditions: MDCK, 48 h, read-out: Cell survival rate
influenza A virus [6] = conditions: for cell viability rate: dog
MDCK cells = conditions: dog
[7] = tested on: influenza A virus (A PR/8/34); assay: Lung index of influenza A virus-infected mice; format: in vivo, ICR mice
Description: (§1) A total of 108 ICR mice were randomly divided into the control uninfected group, the control infected group, oseltamivir group, LEP-treated groups and DPEP-treated groups; 12 mice were designed in each group. Except for the mice in the control uninfected group, others were anaesthetized with ethyl ether and intranasally infected with 10LD50 influenza A virus (A PR/8/34) in a volume of 50 μl PBS to induce viral pneumonia. […] Meanwhile, the control uninfected group and the control infected group were only given saline with the same volume. […] The adult daily dose was converted into the high dose of mice, which was about 40 mg/kg. Based on the high dose of the drug, the medium and low doses were set.
(§2) In the 3rd and 7th days after infection, to monitor the histological changes in influenza A virus-infected animals, six mice were sacrificed randomly in each group, and lung, spleen and thymus tissues were obtained and weighed after being washed with saline solution. Lung index and the inhibition ratio of the lung index were calculated as our previous report, while spleen and thymus indexes were calculated based on the following formulas ([Ling et al., 2017]).

[8] = tested on: IL-1β, IL-6 and IL-10 in serum; format: in vivo, ICR mice; conditions: 3rd and 7th day after infection
Description: as §1
In days 3 and 7 post-infection, blood samples of six mice from each group were collected from retroorbital sinus under mild ethyl ether anesthesia before they were sacrificed, then under 4 °C they were centrifuged at 3000 rpm for 20 min to obtain serum. The levels of IL-1β, IL-6 and IL-10 in murine serum were determined by ELISA kits.

[9] = tested on: influenza A virus (A PR/8/34); assay: Spleen and thymus indexes of infected mice; format: in vivo, ICR mice
Description: as §1, §2
Spleen index = (spleen weight/body weight)×100%;
Thymus index = (thymus weight/body weight)×100%;

[10] = tested on: TLR4, TLR7, MyD88 and NF-κB p65 protein expression; set-up: species or system ICR mice; conditions: mouse, in vivo
[11] = 24 and 48 h after administration

SMILES: C[C@@H]([C@H](O)c1ccccc1)N(C)C [LMEP, L-methylephedrin]
- CPE of infected MDCK cells (influenza A virus [1]; [11]): significantly reduce the CPE
- virus load vs oseltamivir group (influenza A virus [1]; 24 h treatment, P < 0.05): significantly lower than that of oseltamivir group
- virus load vs oseltamivir group (influenza A virus [1]; 48 h treatment): no difference
- viral load in MDCK cells vs control infected group (influenza A virus [1]; each dose group, 24 and 48 h after administration, P < 0.01 or P < 0.05): significantly decreased
- mRNA expression levels of TLR7, NF-κB p65, TLR3 and IRF3 [2]: significantly reduced
- mRNA expression of IFN-β [2]: significantly increased
- mRNA expression of TLR4 [2]: significant decreased
- mRNA expression of TLR4, MyD88 and TRAF3 [2]: significantly reduced
- mRNA expression of TRAF3 [2]: significantly reduced
- antiviral effective rate (ER) (influenza A virus [3]; 31.25 μg/ml (highest concentration), post-treatment host cells after virus infection): 63.52% and 64.16%
- antiviral effective rate (ER) (influenza A virus [3]; 31.25 μg/ml, limited treatment of 1 hour during virus infection): 60.58%
- antiviral effective rate (ER) (influenza A virus [3]; 31.25 μg/ml, pre-treatment host cells prior to virus infection): 56.94%
- antiviral effective rate (ER) (influenza A virus [3]; 31.25 μg/ml, pre-treatment of virus with drug): 61.48%
- EC50 (influenza A virus [3]; drug delivery way: Blocking viruses invading host cells): 20.4 µg/mL (≈ 114 µM)
- EC50 (influenza A virus [3]; drug delivery way: Directly inhibiting virus): 7.55 µg/mL (≈ 42.1 µM)
- EC50 (influenza A virus [3]; drug delivery way: Inhibiting the biosynthesis of virus): 6.65 µg/mL (≈ 37.1 µM)
- EC50 (influenza A virus [3]; drug delivery way: Intervening the adsorption of virus): 7.85 µg/mL (≈ 43.8 µM)
- antiviral effective rate (ER) (influenza A virus [3]; final concentration 3.91 μg/ml): more than 34.00%
- IL-6 level in cell supernatant vs control infected group [4]: significantly higher than that in the control infected group
- level of IFN-β in cell supernatant vs control infected group [4]: significantly increase; also recorded: increased
- secretion of TNF-α vs control infected group [4]: significantly inhibited the secretion of TNF-α
- viability at 0.98 µg/mL (influenza A virus [5]): 57.3%
- viability at 1.95 µg/mL (influenza A virus [5]): 63.2%
- viability at 3.91 µg/mL (influenza A virus [5]): 66.6%
- viability at 7.81 µg/mL (influenza A virus [5]): 70.3%
- viability at 31.25 µg/mL (influenza A virus [5]): 77.8%
- viability at […] (influenza A virus [5]): 75.1%
- cell viability rate (influenza A virus [6]): ≥ 70%
- TC0 (MDCK cells): 31.25 µg/mL
- TC50 (MDCK cells): 216.77 µg/mL (≈ 1210 µM)
- cells' survival rate (MDCK cells): higher than 90%

SMILES: CCOC(=O)C1=C[C@@H](OC(CC)CC)[C@H](NC(C)=O)[C@@H](N)C1 [Oseltamivir, reference compound]
- CPE of infected MDCK cells (influenza A virus [1]; [11]): significantly reduce the CPE
- Inhibition ratio of lung index ([7]; Day 3, 22 mg/kg by gavage): 41.27%
- Lung index ([7]; Day 3, 22 mg/kg by gavage): 0.74 ± 0.03
- Inhibition ratio of lung index ([7]; Day 7, 22 mg/kg by gavage): 38.86%
- Lung index ([7]; Day 7, 22 mg/kg by gavage): 1.18 ± 0.11
- IL-10 in serum ([8]; P < 0.01): accelerated the production of IL-10
- IL-1β in serum ([8]; P < 0.01 or P < 0.05): dramatically inhibited the production of IL-1β
- IL-6 in serum ([8]; P > 0.05): slightly increased
- spleen index ([9]; Day 3, 22 mg/kg): 0.51 ± 0.13
- thymus index ([9]; Day 3, 22 mg/kg): 0.45 ± 0.05
- spleen index ([9]; Day 7, 22 mg/kg): 0.49 ± 0.08
- thymus index ([9]; Day 7, 22 mg/kg): 0.38 ± 0.03
- protein expression levels of MyD88 and NF-κB p65 in lung tissue [10]: significantly down-regulated
- protein expression levels of TLR4 and TLR7 in lung tissue [10]: Decreased
- IL-6 level in cell supernatant vs control infected group [4]: significantly higher than that in the control infected group
- viability at 10 µg/mL (influenza A virus [5]): 82.7%
- TC0 (MDCK cells; 48 h): 100.00 µg/mL
- TC50 (MDCK cells; 48 h): 500.00 µg/mL (≈ 1600 µM)

SMILES: CC1(C)[C@@H](O[C@H]2O[C@H](C(=O)O)[C@@H](O)[C@H](O)[C@H]2O[C@@H]2O[C@H](C(=O)O)[C@@H](O)[C@H](O)[C@H]2O)CC[C@]2(C)[C@H]3C(=O)C=C4[C@@H]5C[C@@](C)(C(=O)O)CC[C@]5(C)CC[C@@]4(C)[C@]3(C)CC[C@@H]12 [GA, glycyrrhizic acid]
- viability at 3.91 µg/mL (influenza A virus [5]): 31.1%
- viability at 7.81 µg/mL (influenza A virus [5]): 32.8%
- viability at 31.25 µg/mL (influenza A virus [5]): 43%
- viability at 125 µg/mL (influenza A virus [5]): 47.2%
- viability at […] (influenza A virus [5]): 34.4% and 46%
- effect on the cell viability after virus infection (in words) (influenza A virus [6]): slightly increase the cell viability rate, but not obviously
- cell viability rate (influenza A virus [6]): about 47%
- TC0 (MDCK cells; 48 h): 125.00 µg/mL
- TC50 (MDCK cells; 48 h): 663.74 µg/mL (≈ 807 µM)

SMILES: OC/C=C/c1ccccc1 [CAO, cinnamic alcohol]
- viability at 3.91 µg/mL (influenza A virus [5]): 25%
- viability at 7.81 µg/mL (influenza A virus [5]): 25.9%
- viability at 31.25 µg/mL (influenza A virus [5]): 26.4%
- viability at 125 µg/mL (influenza A virus [5]): 32.6%
- viability at […] (influenza A virus [5]): 26.7% and 29.9%
- effect on the cell viability after virus infection (in words) (influenza A virus [6]): little antiviral effect
- TC0 (MDCK cells): 125.00 µg/mL
- TC50 (MDCK cells): 390.84 µg/mL (≈ 2910 µM)

SMILES: O=C(O)/C=C/c1ccccc1 [CMA, cinnamic acid]
- viability at 1.95 µg/mL (influenza A virus [5]): 27.7%
- viability at 3.91 µg/mL (influenza A virus [5]): 27.9%
- viability at 7.81 µg/mL (influenza A virus [5]): 30.9%
- viability at 31.25 µg/mL (influenza A virus [5]): 33.5%
- viability at […] (influenza A virus [5]): 34.8%
- effect on the cell viability after virus infection (in words) (influenza A virus [6]): little antiviral effect

SMILES: N#C[C@H](O[C@@H]1O[C@H](CO[C@@H]2O[C@H](CO)[C@@H](O)[C@H](O)[C@H]2O)[C@@H](O)[C@H](O)[C@H]1O)c1ccccc1 [AMY, amygdalin]
- viability at 0.98 µg/mL (influenza A virus [5]): 26.2%
- viability at 1.95 µg/mL (influenza A virus [5]): 27%
- viability at 3.91 µg/mL (influenza A virus [5]): 29%
- viability at 7.81 µg/mL (influenza A virus [5]): 27.9%
- viability at 31.25 µg/mL (influenza A virus [5]): 28.9%
- viability at […] (influenza A virus [5]): 28.2%
- effect on the cell viability after virus infection (in words) (influenza A virus [6]): little antiviral effect
- TC0 (MDCK cells): 31.25 µg/mL
- TC50 (MDCK cells): 563.64 µg/mL (≈ 1230 µM)

SMILES: O=C1C[C@@H](c2ccc(O[C@@H]3O[C@H](CO)[C@@H](O)[C@H](O)[C@H]3O)cc2)Oc2cc(O)ccc21 [LIQ, liquiritin]
- viability at 7.81 µg/mL (influenza A virus [5]): 26.6%
- viability at 31.25 µg/mL (influenza A virus [5]): 28.4%
- viability at 125 µg/mL (influenza A virus [5]): 32.2%
- viability at 250 µg/mL (influenza A virus [5]): 33.7%
- viability at […] (influenza A virus [5]): 26.9% and 28%
- effect on the cell viability after virus infection (in words) (influenza A virus [6]): little antiviral effect
- TC0 (MDCK cells; 48 h): 250.00 µg/mL
- TC50 (MDCK cells; 48 h): 680.77 µg/mL (≈ 1630 µM)
